Experimental data reported in PubChem BioAssay AID2060900 (Molecular Pharmacology Branch, DTP, NCI, 2025).
“And” between values parts separate entries of the source, which are not always exact repeats. Equal entries are not always repeated.

System: 521955-158-R2-J5-PDC complex spheroids, viability
Experiment: Anticancer human tumor 521955-158-R2-J5-PDC patient-derived pancreatic carcinoma cell line growth inhibition [RAS]
Conditions: for viability, T/C: stronger effect = lower value; active = viability on the fitted dose curve at most 10% of control; inactive = the rest
How it was run: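 Tumour cells grown as complex spheroids with HUVEC endothelial cells and mesenchymal stem cells, treated with RAS pathway inhibitor combinations. Each agent spans half-log steps from near clinical Cmax, or 10 microM where Cmax is unknown.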

[1] = curve of first compound, second compound 0.000949 µM
[2] = curve of first compound, second compound 0.003 µM
[3] = curve of first compound, second compound 0.00949 µM
[4] = curve of first compound, second compound 0.03 µM
[5] = curve of first compound, second compound 0.0949 µM
[6] = curve of first compound, second compound 0.3 µM
[7] = second compound 0.000949 µM, first compound 0.0316 µM
[8] = second compound 0.000949 µM, first compound 0.1 µM
[9] = second compound 0.000949 µM, first compound 0.316 µM
[10] = second compound 0.000949 µM, first compound 1 µM
[11] = second compound 0.000949 µM, first compound 3.16 µM
[12] = second compound 0.000949 µM, first compound 10 µM
[13] = second compound 0.003 µM, first compound 0.0316 µM
[14] = second compound 0.003 µM, first compound 0.1 µM
[15] = second compound 0.003 µM, first compound 0.316 µM
[16] = second compound 0.003 µM, first compound 1 µM
[17] = second compound 0.003 µM, first compound 3.16 µM
[18] = second compound 0.003 µM, first compound 10 µM
[19] = second compound 0.00949 µM, first compound 0.0316 µM
[20] = second compound 0.00949 µM, first compound 0.1 µM
[21] = second compound 0.00949 µM, first compound 0.316 µM
[22] = second compound 0.00949 µM, first compound 1 µM
[23] = second compound 0.00949 µM, first compound 3.16 µM
[24] = second compound 0.00949 µM, first compound 10 µM
[25] = second compound 0.03 µM, first compound 0.0316 µM
[26] = second compound 0.03 µM, first compound 0.1 µM
[27] = second compound 0.03 µM, first compound 0.316 µM
[28] = second compound 0.03 µM, first compound 1 µM
[29] = second compound 0.03 µM, first compound 3.16 µM
[30] = second compound 0.03 µM, first compound 10 µM
[31] = second compound 0.0949 µM, first compound 0.0316 µM
[32] = second compound 0.0949 µM, first compound 0.1 µM
[33] = second compound 0.0949 µM, first compound 0.316 µM
[34] = second compound 0.0949 µM, first compound 1 µM
[35] = second compound 0.0949 µM, first compound 3.16 µM
[36] = second compound 0.0949 µM, first compound 10 µM
[37] = second compound 0.3 µM, first compound 0.0316 µM
[38] = second compound 0.3 µM, first compound 0.1 µM
[39] = second compound 0.3 µM, first compound 0.316 µM
[40] = second compound 0.3 µM, first compound 1 µM
[41] = second compound 0.3 µM, first compound 3.16 µM
[42] = second compound 0.3 µM, first compound 10 µM
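Also: compound exposure lasted seven days before the viability read.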
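For viability, T/C in this document: spheroids also contain HUVEC endothelial cells and mesenchymal stem cells as stroma.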

CCc1c2c(nc3ccc(O)cc13)-c1cc3c(c(=O)n1C2)COC(=O)[C@]3(O)CC + CCn1c(-c2cc(N3CCN(C)CC3)cnc2C(C)OC)c2c3cc(ccc31)-c1csc(n1)CC(NC(=O)C1CC1C)C(=O)N1CCCC(N1)C(=O)OCC(C)(C)C2
active: viability, T/C (second compound 0.000949 µM, first compound 0.0949 µM) 5.57% | viability, T/C (second compound 0.000949 µM, first compound 0.3 µM) 4.03% | viability, T/C (second compound 0.003 µM, first compound 0.0949 µM) 8.02% | viability, T/C (second compound 0.003 µM, first compound 0.3 µM) 5.19% | viability, T/C (second compound 0.00949 µM, first compound 0.0949 µM) 10.9% | viability, T/C (second compound 0.00949 µM, first compound 0.3 µM) 5.95% | viability, T/C (second compound 0.03 µM, first compound 0.0949 µM) 10.2% | viability, T/C (second compound 0.03 µM, first compound 0.3 µM) 5.37% | viability, T/C (second compound 0.0949 µM, first compound 0.00949 µM) 8.2% | viability, T/C (second compound 0.0949 µM, first compound 0.03 µM) 6.36% | viability, T/C (second compound 0.0949 µM, first compound 0.0949 µM) 5.92% | viability, T/C (second compound 0.0949 µM, first compound 0.3 µM) 2.8% | viability, T/C (second compound 0.3 µM, first compound 0.003 µM) 10.8% | viability, T/C (second compound 0.3 µM, first compound 0.00949 µM) 8.12% | viability, T/C (second compound 0.3 µM, first compound 0.03 µM) 5.86% | viability, T/C (second compound 0.3 µM, first compound 0.0949 µM) 6.11% | viability, T/C (second compound 0.3 µM, first compound 0.3 µM) 2.57%
inactive: viability, T/C (second compound 0.000949 µM, first compound 0.000949 µM) 30.3% | viability, T/C (second compound 0.000949 µM, first compound 0.003 µM) 23.1% | viability, T/C (second compound 0.000949 µM, first compound 0.00949 µM) 20.6% | viability, T/C (second compound 0.000949 µM, first compound 0.03 µM) 6.46% | viability, T/C (second compound 0.003 µM, first compound 0.000949 µM) 30.4% | viability, T/C (second compound 0.003 µM, first compound 0.003 µM) 26.8% | viability, T/C (second compound 0.003 µM, first compound 0.00949 µM) 19.9% | viability, T/C (second compound 0.003 µM, first compound 0.03 µM) 10.5% | viability, T/C (second compound 0.00949 µM, first compound 0.000949 µM) 26.2% | viability, T/C (second compound 0.00949 µM, first compound 0.003 µM) 26% | viability, T/C (second compound 0.00949 µM, first compound 0.00949 µM) 19.6% | viability, T/C (second compound 0.00949 µM, first compound 0.03 µM) 9.8% | viability, T/C (second compound 0.03 µM, first compound 0.000949 µM) 19.4% | viability, T/C (second compound 0.03 µM, first compound 0.003 µM) 21.2% | viability, T/C (second compound 0.03 µM, first compound 0.00949 µM) 13.2% | viability, T/C (second compound 0.03 µM, first compound 0.03 µM) 8.77% | viability, T/C (second compound 0.0949 µM, first compound 0.000949 µM) 11.3% | viability, T/C (second compound 0.0949 µM, first compound 0.003 µM) 14.1% | viability, T/C (second compound 0.3 µM, first compound 0.000949 µM) 8.86%
< 0.949 nM: IC50 [1] | IC50 [2] | IC50 [3] | IC50 [4] | IC50 [5] | IC50 [6]

CC(C)NCC(C(=O)N1CCN(c2ncnc3c2C(C)CC3O)CC1)c1ccc(Cl)cc1 (stereo not drawn) + CCn1c(-c2cccnc2C(C)OC)c2c3cc(ccc31)N1CCOC(CC(NC(=O)C(C(C)C)N(C)C(=O)C3(F)CCN(C(=O)C#CC(C)(C)N(C)C)CC3)C(=O)N3CCCC(N3)C(=O)OCC(C)(C)C2)C1
8610 nM: IC50 [6]
inactive: viability, T/C [7] 84.8% | viability, T/C [8] 85.3% | viability, T/C [9] 84.9% | viability, T/C [10] 62.7% | viability, T/C [11] 68% | viability, T/C [12] 72% | viability, T/C [13] 81.6% | viability, T/C [14] 92.5% | viability, T/C [15] 77.4% | viability, T/C [16] 56.1% | viability, T/C [17] 62.4% | viability, T/C [18] 79.1% | viability, T/C [19] 88.7% | viability, T/C [20] 91.7% | viability, T/C [21] 78.7% | viability, T/C [22] 53% | viability, T/C [23] 60.1% | viability, T/C [24] 68% | viability, T/C [25] 83.9% | viability, T/C [26] 100% | viability, T/C [27] 83% | viability, T/C [28] 57.5% | viability, T/C [29] 68.3% | viability, T/C [30] 56.8% | viability, T/C [31] 93.6% | viability, T/C [32] 92% | viability, T/C [33] 82.4% | viability, T/C [34] 64.3% | viability, T/C [35] 61.3% | viability, T/C [36] 59.9% | viability, T/C [37] 67.2% | viability, T/C [38] 76.6% | viability, T/C [39] 67.9% | viability, T/C [40] 57.2% | viability, T/C [41] 57.4% | viability, T/C [42] 49.6%
> 10000 nM: IC50 [1] | IC50 [2] | IC50 [3] | IC50 [4] | IC50 [5]

C[C@@H](NC(=O)c1ncnc(N)c1Cl)c1ncc(C(=O)Nc2cc(C(F)(F)F)c(Cl)cn2)s1 + CCn1c(-c2cc(N3CCN(C)CC3)cnc2C(C)OC)c2c3cc(ccc31)-c1csc(n1)CC(NC(=O)C1CC1C)C(=O)N1CCCC(N1)C(=O)OCC(C)(C)C2
inactive: viability, T/C [7] 49.2% | viability, T/C [8] 50.3% | viability, T/C [9] 50.4% | viability, T/C [10] 48.9% | viability, T/C [11] 51.3% | viability, T/C [12] 49% | viability, T/C [13] 39.9% | viability, T/C [14] 39.5% | viability, T/C [15] 45.2% | viability, T/C [16] 38.9% | viability, T/C [17] 47.9% | viability, T/C [18] 40.7% | viability, T/C [19] 39.9% | viability, T/C [20] 34.2% | viability, T/C [21] 40.8% | viability, T/C [22] 37% | viability, T/C [23] 36.4% | viability, T/C [24] 38.7% | viability, T/C [25] 26.9% | viability, T/C [26] 29.7% | viability, T/C [27] 31% | viability, T/C [28] 22.4% | viability, T/C [29] 29.2% | viability, T/C [30] 21.6% | viability, T/C [31] 11.8% | viability, T/C [32] 12.6% | viability, T/C [33] 18.7% | viability, T/C [34] 16.8% | viability, T/C [35] 17.8% | viability, T/C [36] 17.8% | viability, T/C [37] 11.7% | viability, T/C [38] 13.2% | viability, T/C [39] 13.5% | viability, T/C [40] 12.4% | viability, T/C [41] 15.2% | viability, T/C [42] 12.3%
< 31.6 nM: IC50 [1] | IC50 [2] | IC50 [3] | IC50 [4] | IC50 [5] | IC50 [6]

Cc1nc(N2CCC3(CC2)COC(C)C3N)c(CO)nc1Sc1ccnc(N)c1Cl (stereo not drawn)
> 10000 nM: IC50 (curve of compound)
inactive: viability, T/C (compound 0.0316 µM) 85.6% [middle of 4 runs] | viability, T/C (compound 0.1 µM) 71.7% [middle of 4 runs] | viability, T/C (compound 0.316 µM) 69.2% [middle of 4 runs] | viability, T/C (compound 1 µM) 67.1% [middle of 4 runs] | viability, T/C (compound 3.16 µM) 67% [middle of 4 runs] | viability, T/C (compound 10 µM) 57% and 57.9% (2×) and 51.2%

CC1(C)CCC(Nc2ncc(C(F)(F)F)c(-c3c[nH]c4c(P(C)(C)=O)c(C#N)ccc34)n2)CN1 (stereo not drawn)
inactive: viability, T/C (compound 0.000949 µM) 104% [middle of 4 runs] | viability, T/C (compound 0.003 µM) 74.5% [middle of 4 runs] | viability, T/C (compound 0.00949 µM) 57.2% [middle of 4 runs] | viability, T/C (compound 0.03 µM) 48.7% [middle of 4 runs] | viability, T/C (compound 0.0949 µM) 52.8% [middle of 4 runs]
